Data: US10363234B2, “Antihypertensive agent” (WAKUNAGA PHARMACEUTICAL CO., LTD., priority 2015, dated 2019)

Key:
Format in all cases: in vivo, rat
[1] = tested on: Spontaneous Hypertensive Rats (SHR); test: Single oral administration of S1PC and SAC to spontaneous hypertensive rats, systolic blood pressure (Test Example 2); conditions: SHR/Izm rats, single oral dose 1 mg/kg, S1PC effect 3 hours after the administration, Bonferroni test
Protocol: Effect of Administering S-1-Propenylcysteine (S1PC) and S-Allylcysteine (SAC) to Spontaneous Hypertensive Rats (SHR)
One group of eight 8-week-old male SHR/Izm rats purchased from Japan SLC, Inc. (Hamamatsu-shi) was preliminarily bred for three weeks. During preliminary breeding, handling was performed on the rats, and the rats were bred in a constant environment (temperature; 23±1° C., humidity; 50±10%, light-dark cycle; 12 hours (light period; 7 to 19 o'clock)) and freely fed with an artificial diet (CE-2; CLEA Japan, Inc.) and sterilized tap water.
(§1) The administration was performed by forced oral administration using a disposable feeding needle and the fluid volume to be administered was 10 mL per 1 kg of SHR weight. […]
(§2) Before the start of administration (0 hour) and after the administration (3, 6, and 24 hours), the systolic blood pressure at the base of each tail was measured without anesthesia using a non-preheating, non-invasive blood pressure monitor (MK-2000ST, Muromachi Kikai Co., Ltd.). Note that the measurement was performed five times per individual, the upper and lower values were eliminated, and an average of the remaining measured values was defined as a systolic blood pressure value of the individual. […]

[2] = tested on: Spontaneous Hypertensive Rats (SHR); test: Single oral administration of S1PC to spontaneous hypertensive rats, systolic blood pressure (Test Example 1); conditions: SHR/Izm rats, single oral dose 6.5 mg/kg, 1.5 to 6 hours after the administration, t-test
Protocol: Effect of Administering S-1-Propenylcysteine (S1PC) to Spontaneous Hypertensive Rats (SHR)
One group of eight 8-week-old male SHR/Izm rats purchased from Japan SLC, Inc. (Hamamatsu-shi) was preliminarily bred for two weeks. During preliminary breeding, handling was performed on the rats, and the rats were bred in a constant environment (temperature; 23±1° C., humidity; 50±10%, light-dark cycle; 12 hours (light period; 7 to 19 o'clock)) and freely fed with an artificial diet (CE-2; CLEA Japan, Inc.) and sterilized tap water.
The administration was performed by forced oral administration using a disposable feeding needle and the fluid volume to be administered was 10 mL per 1 kg of SHR weight. As a sample to be administered, about 15 mg of S-1-propenylcysteine produced in Production Example 2 (a cis- and trans-mixture) was precisely weighed and dissolved in 15 mL of purified water. […]
Before the start of administration (0 hour) and after the administration (1.5, 3, 6, and 24 hours), the systolic blood pressure at the base of each tail was measured without anesthesia using a non-preheating, non-invasive blood pressure monitor (MK-2000ST, Muromachi Kikai Co., Ltd.). Note that the measurement was performed five times per individual, the upper and lower values were eliminated, and an average of the remaining measured values was defined as a systolic blood pressure value of the individual. […]

[3] = tested on: Spontaneous Hypertensive Rats (SHR); test: Repeated oral administration of S1PC to spontaneous hypertensive rats for 10 weeks, systolic blood pressure (Test Example 3); conditions: SHR/Izm rats, 6.5 mg/kg oral once a day for 10 weeks, two-way ANOVA
Protocol: Effect of Repeated Oral Administration of S-1-Propenylcysteine (S1PC) on Spontaneous Hypertensive Rats (SHR)
One group of ten 8-week-old male SHR/Izm rats purchased from Japan SLC, Inc. (Hamamatsu-shi) was preliminarily bred for two weeks. During preliminary breeding, handling was performed on the rats, and the rats were bred in a constant environment (temperature; 23±1° C., humidity; 50±10%, light-dark cycle; 12 hours (light period; 7 to 19 o'clock)) and freely fed with an artificial diet (CE-2; CLEA Japan, Inc.) and sterilized tap water.
as §1
Before the repeated oral administration (0 hour), and every other week after the administration up to 10 weeks, the systolic blood pressure at the base of each tail was measured without anesthesia using a non-preheating, non-invasive blood pressure monitor (MK-2000ST, Muromachi Kikai Co., Ltd.). Note that the measurement was performed five times per individual, the upper and lower values were eliminated, and an average of the remaining measured values was defined as a systolic blood pressure value of the individual. […]

Normotensive Rats (WKY) = test: Single oral administration of S1PC to normotensive rats, systolic blood pressure (Test Example 4); conditions: WKY/Izm rats, single oral dose 6.5 mg/kg, measured 3, 6 and 24 hours
Protocol: Effect of Administering S-1-Propenylcysteine (S1PC) to Normotensive Rats (WKY)
One group of four 8-week-old male WKY/Izm rats purchased from Japan SLC, Inc. (Hamamatsu-shi) was preliminarily bred for two weeks. During preliminary breeding, handling was performed on the rats, and the rats were bred in a constant environment (temperature; 23±1° C., humidity; 50±10%, light-dark cycle; 12 hours (light period; 7 to 19 o'clock)) and freely fed with an artificial diet (CE-2; CLEA Japan, Inc.) and sterilized tap water.
The administration was performed by forced oral administration using a disposable feeding needle and the fluid volume to be administered was 10 mL per 1 kg of WKY weight. As a sample to be administered, about 15 mg of S-1-propenylcysteine produced in Production Example 2 (a cis- and trans-mixture) was precisely weighed and dissolved in 15 mL of purified water. […]
as §2

**Q.** With C=CCSC[C@H](N)C(=O)O [SAC, S-allylcysteine, reference compound] as the molecule, how does the “antihypertensive effect (systolic blood pressure) as compared with the control group” value [1] read?
**A.** Its value is “no significant antihypertensive effect”.

**Q.** What does the source list for CC=CSCC(N)C(=O)O (centres unmarked) [S-1-propenylcysteine]?
**A.** antihypertensive effect (systolic blood pressure) as compared with the control group [2]: significant antihypertensive effect; antihypertensive effect (systolic blood pressure) as compared with the control group [1]: significant antihypertensive effect; antihypertensive effect (systolic blood pressure) as compared with the control group [3]: significant antihypertensive effect; antihypertensive effect (systolic blood pressure) on normotensive rats (Normotensive Rats (WKY)): no significant antihypertensive effect
